Patent US20240318102A1, “IMPROVED ENZYME-CONTAINING ADDITIVE AND DETERGENT LIQUOR FORMULATIONS” (priority 2021, published 2024)

The substances below were run against T1, lipase enzyme (Thermomyces lanuginosus, UniProt O59952, N255R/T253R) (assay: Washing test: total hydrolysis of rapeseed oil on a polyester swatch by lipase-containing washing liquor, free oleic acid quantified by HPLC). Conditions: Example 5, surfactant concentration series.
T1 construct: purchased Novozymes LIPEX 100 L
Type: biochemical

T1 sequence (O59952 23-291 T253R/N255R): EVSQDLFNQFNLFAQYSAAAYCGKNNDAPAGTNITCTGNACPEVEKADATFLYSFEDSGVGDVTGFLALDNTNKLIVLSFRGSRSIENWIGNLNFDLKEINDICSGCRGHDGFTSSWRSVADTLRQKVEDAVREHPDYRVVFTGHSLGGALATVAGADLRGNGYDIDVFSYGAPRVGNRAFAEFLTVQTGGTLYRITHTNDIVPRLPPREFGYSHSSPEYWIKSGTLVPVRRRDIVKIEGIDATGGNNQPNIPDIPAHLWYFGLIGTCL

| Substance | surfactant concentration at which the suppressing activity already becomes noticeable [ppm by weight] | surfactant concentration until which the suppressing effect further grows (about the same up to 250 ppm by weight) |
| --- | --- | --- |
| 5EO-isoC13 | 10 | about 100 ppm by weight |

These substances were tested against T1, lipase enzyme in the same assay as above. Conditions: about 100 ppm by weight surfactant; lipase concentrate about 0.2 g/l; pH about 9.6; about 50° C.; water hardness 2 fH.
Type: biochemical
Protocol: The total hydrolysis of rapeseed oil in a wash process was tested with washing liquors that were always comprising the same concentration of a lipase enzyme concentrate. A blank test was performed without any added surfactant. This blank test served as the reference with which could be compared the other results obtained with the same washing liquor samples into which one of a number of different non-ionic surfactants were added.
In the experiments, the lipase concentrate was always present in a concentration of about 0.2 gram of the concentrate per litre of total liquor.
The washing tests were performed at a temperature of about 50° C. The water in the formulations was demineralised water obtained by reverse osmosis (RO).
Different washing liquors were prepared containing about 100 ppm by weight of a selected surfactant, to be compared with a blank liquor containing only the lipase enzyme concentrate and no surfactants.
For each liquor was tested the appearance of free oleic acid generated from the hydrolysis of a standard amount of rapeseed oil with which the liquor was brought in contact. Monitored by High Performance Liquid Chromatography (HPLC) was the quantitative release of free oleic acid (C18:1 fatty acid) in the washing liquor and/or present on the textile, as explained as part of the protocols below. Because oleic acid is the main fatty acid in the triglycerides of rapeseed oil, the generation of this acid as free fatty acid it is an excellent quantitative marker for the hydrolysis of rapeseed oil, in this context thus also for the activity of the lipase enzyme.
A series of tests were performed using water having a hardness of 2 fH. […] For each surfactant choice 2 duplicate samples were tested, except for Sample J (3 duplicates) and Sample K (only 1 sample tested). […] Also shown for each bar with a surfactant is an error bar showing the difference between the lowest and the highest of the duplicates.
The washing tests consisted of contacting at 50° C. a washing liquor containing the selected surfactant together with 0.2 grams per litre of the lipase enzyme concentrate and having a pH of 9.6 with a polyester swatch type W30-A (PES W30-A textile swatch obtained from the company Center For Testmaterials BV (NL)) that has been pre-treated with an amount of rapeseed oil such that the textile swatch contained about 1.5 grams of rapeseed oil on a total weight of slightly over 8 grams of pre-treated swatch.
The pre-treatment consisting of distributing a generous amount of rapeseed oil over the swatch by means of a paint roller. After applying the rapeseed oil onto the swatch, the impregnated swatch was left to dry for 48 hours between two layers of textile for assuring saturation and for absorbing the excess, after which the swatch was weighed on an analytical balance. The difference with the weight of the swatch before applying the rapeseed oil provides the amount of rapeseed oil that was present on the swatch.
In a 600 ml beaker is introduced 500 grams of the stock solution that was prepared in step 2, and this is brought up to a temperature of […] under stirring by means of a mixer submerged close to the bottom of the beaker at about 200 rpm. To this stock solution is then added 100 microliter (“μl”) of the concentrate of the lipase enzyme. Into this warm solution is then introduced the textile (i.e. the pre-treated PES swatch) to be tested, and the time counting of 10 minutes is started. Where a surfactant should be included, 50 milligram thereof is added into the beaker prior to introducing the lipase enzyme and of the textile.
After the 10 minutes contacting time provided in part 1, about 30 grams of the wash water (or wash liquor) is introduced into the 250 ml beaker containing the buffer solution and the formic acid. The formic acid serves to inactivate the lipase enzyme, so that the reaction is stopped. The total weight of the beaker content is noted and should be ±35 grams.
The dried textile is first weighed. […]

| Substance | effect of the surfactant on lipase activity in the washing liquor (in words, FIG. 1) |
| --- | --- |
| 5EO-C13-C15 [M] | relatively benign |
| 5EO-isoC13 | not better than the conventional LES surfactant |
| 7EO-C13-15 [N] | much larger depressing effect |
| 7EO-isoC13 [F] | not better than the conventional LES surfactant |
| 9EO-isoC13 [G] | not better than the conventional LES surfactant |
| 10EO-isoC13 [H] | not better than the conventional LES surfactant |
| C8-C10 APG-DP of 1.7 [Sample K] | much lower depressing effect |
| C8-C10 alkyl polyglucoside (APG) with an average degree of polymerisation (DP) of 1.5 | much lower depressing effect |
| C8-C16 APG-DP of 1.5 [Sample J] | much lower depressing effect |
| C9-C11 fatty alcohol alkoxylated with an average ethoxylation degree of about 6 and an average propoxylation degree of about 4 [Sample O] | worse than the LES reference |
| C12-C14 amine oxide [P] | significant boost |
| a mixture of linear C13-C15 alcohol that has been ethoxylated to an average degree of about 3 | relatively benign |
| isotridecyl alcohol ethoxylated to an average degree of ethoxylation of about 3 | not better than the conventional LES surfactant |

Same assay, conditions: about 100 ppm by weight surfactant; lipase concentrate about 0.2 g/l; pH about 9.6; about 50° C.; water hardness 2 fH; 10 minute washing test

| Substance | relative lipase activity relative to the blank liquor (A) set at 100% [%] |
| --- | --- |
| Linear Alkyl Benzene Sulphonate [Sample B] | 12 |
